Residues, ends and D or L forms follow the SMILES beside them. *: point of attachment. AMC = Cc1cc(=O)oc2cc(N*)ccc12; Boc = CC(C)(C)OC(=O)*
Columns and labels:
MRSA and MSSA [1] = conditions: post-culture (10^6-10^8 bacteria); cited from earlier work
[2] = tested on: MRSA, MSSA, S. epidermidis and E. coli; test: Coumarin staphylocoagulase fluorescence assay, all four bacterial species; format: cell-based; conditions: 500 μM coumarin, FIG. 10
Protocol: (§1) As described for the LGX system, clinical isolates of Methicillin Resistant Staphylococcus Aureus (MRSA), Methicillin Sensitive Staphylococcus Aureus (MSSA), Staphylococcus Epidermidis and Eschericia coli were cultured on nutrient agar prior to being grown overnight in nutrient broth under shaking conditions at 37° C. To determine the effects of varying bacterial concentrations with respect to bacterial strains and N-t-BOC-val-pro-arg-7-amido-4-methylcoumarin concentrations on staphylocoagulase activity, a direct comparison between the LGX system and the existing use of N-t-BOC-val-pro-arg-7-amido-4-methylcoumarin as a means of detecting staphylocoagulase was necessary (Ford et al, 1999).
(§2) 100 μM and 500 μM solutions of coumarin solution were prepared in 1×PBS with the addition of 0.05 M Tris Buffer and 0.1 M NaCl to maintain a pH of 8.5 using N-t-BOC-val-pro-arg-7-amido-4-methylcoumarin dissolved in MeOH. Furthermore, 100 μM and 500 μM of human prothrombin was added to the solution. 90 μl of […] of N-t-BOC-val-pro-arg-7-amido-4-methylcoumarin solution was added to varying concentrations of bacteria (10^6, 10^5, 10^4, 10^3, 10^2 and 10^0, respectively) in a microliter plate and staphylocoagulase activity determined by fluorescence spectrophotometry (Excitation of 355 nm, Emmission of 460 nm) at 15 minute intervals over a 6 hour time period. […]

[3] = tested on: MRSA, MSSA, S. epidermidis and E. coli; test: Coumarin assay, absorbance at 385 nm, all bacterial types; format: cell-based; conditions: 100 μM coumarin, FIG. 15
Protocol: To compare the efficacy of this staphylocoagulase assay with current, well established “gold standard” methods of coagulase detection such as a coumarin assay, coagulase test and latex agglutination test, bacterial isolates were prepared in suspension as above and clinical isolates of each respective strain was cultured overnight on nutrient agar. 90 μl of bacterial suspension was added to a solution consisting of 100 μM solutions of N-t-BOC-val-pro-arg-7-amido-4-methylcoumarin prepared in 1×PBS with the addition of 0.05 M Tris Buffer and 0.1 M NaCl to maintain a pH of 8.5. Staphylocoagulase activity was determined by measuring the absorbance at 385 nm at 15 minute intervals over a 6 hour time period. It should be noted that a concentration of 795 μM of the coumarin dye is usually required post-culture (10^6-10^8 bacteria) in order to observe a significant chromogenic response.

MSSA = test: Coumarin staphylocoagulase fluorescence assay, MSSA; format: cell-based, Staphylococcus aureus; conditions: 500 μM coumarin; MSSA 10^6; FIG. 10
Protocol: as §1, §2

MRSA and MSSA [4] = test: Coumarin staphylocoagulase assay, MRSA and MSSA; format: cell-based, Staphylococcus aureus; conditions: 100 μM coumarin; MRSA and MSSA 10^6 and 10^5; FIG. 11
Protocol: as §1, §2

bacterial viability = test: Effect of methanol on bacterial viability (colony count); format: cell-based; conditions: 2 hours incubation, all bacteria concentrations (10^2-10^6), plated on nutrient agar overnight
Protocol: Tests were also run to validate that the methanol had no adverse effects on the growth of a number of bacterial strains up to a ˜5% methanol solution. Varying concentrations of methanol (0.25%, 0.5%, 1%, 2.5 5, 4% and 5%) were incubated with each bacterial species also at varying concentrations (10^2-10^6) for 2 hours prior to plating on nutrient agar to assess the effects of the solvent on bacterial viability.

| Compound | concentration usually required to observe a significant chromogenic response (MRSA and MSSA [1]) [µM] | discrimination between bacterial species by fluorescence ([2]; all bacterial species 10^6) | fluorescence over the 6 hour time period ([2]; high and low concentrations of MRSA, MSSA, S. epidermidis and E. coli) | absorbance over the 6 hour time period ([3]; 10^5, 10^4, 10^3 and 10^2) | absorbance over the 6 hour time period ([3]; 10^6 of all bacterial types) | fluorescence (MSSA) | discrimination between bacterial samples by fluorescence (MRSA and MSSA [4]) | methanol concentration up to which bacterial viability was not compromised (bacterial viability) |
| --- | --- | --- | --- | --- | --- | --- | --- | --- |
| Cc1cc(=O)oc2cc(NC(=O)[C@H](CCCNC(=N)N)NC(=O)[C@@H]3CCCN3C(=O)[C@@H](NC(=O)OC(C)(C)C)C(C)C)ccc12 [N-t-BOC-val-pro-arg-7-amido-4-methylcoumarin] (Boc-Val-Pro-Arg-{AMC}) | 795 | little discrimination between the fluorescence of all samples | no increase in fluorescence was observed | no increase or variance between bacterial strains | little increase over the 6 hour time period | a slight increase was observed | no discrimination between bacterial samples | – |
| CO [methanol] | – | – | – | – | – | – | – | up to 4% |
